Values of other authors as cited in publication PMC8453901, “GLPG1205, a GPR84 Modulator: Safety, Pharmacokinetics, and Pharmacodynamics in Healthy Subjects” (Clinical Pharmacology in Drug Development, 2021).

Test system: histological lesions in the lung
Design: method as in PMID 29454750
Details: bleomycin-induced mouse model of pulmonary fibrosis, compared with vehicle; cited from earlier work

CCCCCc1cccc(CC(=O)O)c1 [PBI‐4050]
reduction of histological lesions in the lung: 47%
